According to PMC6348446 (Journal of Medicinal Chemistry, 2018):
Where “and” joins values, the source holds several entries; their conditions need not be identical. Identical values can stand only once.

Legend:
[1] = CHI LogD determination (reverse-phase HPLC); assay type: physicochemical; settings: reversed-phase HPLC (ACE Excel 3 SuperC18 column), pH 7.4; read-out: CHI LogD (pH7.4)
Experimental: removed from both acceptor and donor compartments and mixed with acetonitrile (80 µL) containing an internal standard. The samples were centrifuged (10 min, 5 °C, 3270 g) to sediment precipitated protein and sealed prior to UPLC-MS/MS analysis using a Xevo TQ-S Micro (Waters Corp, USA). Pe was calculated as shown in the below equation: […]
CA(t) = peak area of compound present in acceptor well at time t = 18000 s Cequi = [CD(t) x VD + CA(t) x VA] / (VD + VA)
VA = acceptor well volume
CD(t) = peak area of compound present in donor well at time t = 18000 s Recovery of compound from donor and acceptor wells was calculated and data was only accepted when recovery exceeded 70%.
Using a fast gradient, reverse-phase HPLC method to determine the chromatographic hydrophobicity index (CHI) was determined as described by Camurri and Zaramella (ref. 3) and Valko et al. (ref. 4). Briefly, by plotting the retention time of a set of reference […]
compounds against known CHI values. The CHI value of test compounds was then calculated according to their retention time.
Test compounds were prepared as 0.25 mM solutions in 50:50 acetonitrile:water and analysed by reversed-phase HPLC-UV (wavelength 254 nm) using a ACE Excel 3 SuperC18, 3 µm, 50 x 2.1 mm column with a gradient of aqueous phase (10 mM ammonium acetate, pH 7.4) and mobile phase (acetonitrile).
Intrinsic clearance (Cli) experiments
Test compound (0.5 µM) was incubated with female CD1 mouse or human (mixed gender) liver microsomes (Xenotech LLCTM; 0.5 mg/mL 50mM potassium phosphate buffer, pH7.4) and the reaction initiated with addition of excess NADPH (8 mg/mL 50 mM potassium phosphate buffer, pH7.4). Immediately, at time zero, then at 3, 6, 9, 15 and 30 minutes an aliquot (50 µL) of the incubation mixture was removed and mixed with acetonitrile (100 µL) to stop the reaction. Internal standard was added to all samples, the samples centrifuged to sediment precipitated protein and the plates then sealed prior to […] analysis using […]
a Xevo TQ-S Micro (Waters corporation, USA).
XLfit (IDBS, UK) was used to calculate the exponential decay and consequently the rate constant (k) from the ratio of peak area of test compound to internal standard at each timepoint. The rate of intrinsic clearance (CLi) of each test compound was then calculated using the following calculation:
CLi(mL/min/g liver) = k x V x Microsomal protein yield
Where V (mL/mg protein) is the incubation volume/mg protein added and microsomal protein yield is taken as 52.5 mg protein/ g liver. Verapamil (0.5 µM) was used as a positive control to confirm acceptable assay performance.

[2] = target: T1, VCB:PROTAC:BRD9-BD ternary complex (Homo sapiens, UniProt P40337+Q9H8M2); test: AlphaLISA proximity assay of ternary complex formation; assay type: binding; settings: for AlphaLISA max intensity: biotinylated VCB 100 nM, His6-BRD9-bromodomain 100 nM
T1 construct: the bromodomain (residues 134–239) for BRD9 (Q9H8M2); made in house; host or cells: Escherichia coli BL21(DE3)
T1 sequence (P40337 54-213 limits assumed, one chain of several): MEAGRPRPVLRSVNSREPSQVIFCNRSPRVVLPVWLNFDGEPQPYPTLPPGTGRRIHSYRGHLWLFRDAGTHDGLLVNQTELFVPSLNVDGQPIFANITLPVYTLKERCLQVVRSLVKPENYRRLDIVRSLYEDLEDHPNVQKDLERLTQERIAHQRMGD
T1 sequence (Q15369 17-112 partner limits assumed, one chain of several): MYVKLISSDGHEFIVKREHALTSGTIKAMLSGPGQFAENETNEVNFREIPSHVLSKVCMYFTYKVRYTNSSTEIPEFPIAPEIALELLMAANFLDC
T1 sequence (Q15370 1-104 partner limits assumed, one chain of several): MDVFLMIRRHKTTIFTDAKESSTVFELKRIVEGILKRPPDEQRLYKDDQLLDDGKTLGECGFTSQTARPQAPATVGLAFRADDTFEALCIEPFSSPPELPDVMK
Experimental: All assays were performed at room temperature in 384-well plates with a final assay volume of 25 μL per well, as described previously.[5] All reagents were prepared as 5× stocks diluted in 50 mM HEPES, pH 7.5, 100 mM NaCl, 0.1% (w/v) bovine serum albumin, and 0.02% (w/v) 3-[(cholamidopropyl)dimethylammonio]-1-propanesulfonate (CHAPS). Plates were sealed by transparent film and briefly centrifuged at 100g between additions of reagents. Biotinylated VCB (100 nM final) and His6-BRD9-bromodomain (100 nM final) were incubated with a range of PROTAC concentrations (0.5–2000 nM; two-in-one serial dilution) for 1 h. Streptavidin-coated donor beads and nickel chelate acceptor beads (PerkinElmer) were added to a final concentration of 10 μg mL^–1, and plates were incubated for another hour. Plates were read on a PHERAstar FS (BMG Labtech) using an optic module with an excitation wavelength of 680 nm and emission wavelength of 615 nm. Intensity values were plotted against PROTAC concentration on a log10 scale using GraphPad Prism, version 7. To obtain biotinylated-VCB, protein was mixed with EZ-link NHS-PEG4-biotin (Thermo Scientific) in a 1:1 molar ratio and incubated at room temperature for 1 h. The reaction was quenched using 1 M Tris-HCl, pH 7.5, and unreacted NHS-biotin was removed with a PD-10 MiniTrap desalting column (GE Healthcare) equilibrated with 20 mM HEPES, pH 7.5, 150 mM NaCl, and 1 mM DTT.

[3] = target: T2, VCB (VHL-ElonginC-ElonginB complex) (Homo sapiens, UniProt P40337); test: ITC, VCB titrated into PROTAC alone (binary); assay type: binding; settings: 25 °C
T2 construct: His6 (cleaved yes); made in house; host or cells: Escherichia coli BL21(DE3)
T2 sequence (P40337 54-213 limits assumed): as the sequence (P40337 54-213 limits assumed, one chain of several) above
T2 sequence (Q15369 17-112 partner limits assumed): as the sequence (Q15369 17-112 partner limits assumed, one chain of several) above
T2 sequence (Q15370 1-104 partner limits assumed): as the sequence (Q15370 1-104 partner limits assumed, one chain of several) above

[4] = target: T3, VCB and BRD9-BD (ternary complex) (Homo sapiens, UniProt P40337+Q9H8M2); test: ITC, VCB titrated into BRD9-BD:PROTAC binary complex (ternary); assay type: binding; settings: 25 °C; for N (stoichiometry), VCB into BRD9-BD:PROTAC complex / ΔG, VCB into BRD9-BD:PROTAC complex / ΔH, VCB into BRD9-BD:PROTAC complex / –TΔS, VCB into BRD9-BD:PROTAC complex: ITC; for cooperativity α (ITC): binary versus ternary VCB binding
T3 construct: the bromodomain (residues 134–239) for BRD9 (Q9H8M2); His6 (cleaved yes); made in house; host or cells: Escherichia coli BL21(DE3)
T3 sequence (P40337 54-213 limits assumed, one chain of several): as the sequence (P40337 54-213 limits assumed, one chain of several) above
T3 sequence (Q15369 17-112 partner limits assumed, one chain of several): as the sequence (Q15369 17-112 partner limits assumed, one chain of several) above
T3 sequence (Q15370 1-104 partner limits assumed, one chain of several): as the sequence (Q15370 1-104 partner limits assumed, one chain of several) above

[5] = target: T4, BRD9 bromodomain (BRD9-BD) (Homo sapiens, UniProt Q9H8M2); test: ITC, BRD9-BD titrated into PROTAC (binary); assay type: binding; settings: 25 °C
T4 construct: the bromodomain (residues 134–239) for BRD9 (Q9H8M2); His6 (cleaved yes); made in house; host or cells: Escherichia coli BL21(DE3)
T4 sequence (Q9H8M2 134-239): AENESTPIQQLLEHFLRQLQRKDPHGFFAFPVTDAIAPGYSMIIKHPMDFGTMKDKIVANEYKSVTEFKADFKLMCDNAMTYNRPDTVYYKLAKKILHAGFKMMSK

chromatographic logD [1] | AlphaLISA max intensity [2] | N (stoichiometry), VCB into PROTAC alone [3] | ΔG, VCB into PROTAC alone [3] | ΔH, VCB into PROTAC alone [3] | –TΔS, VCB into PROTAC alone [3] | N (stoichiometry), VCB into BRD9-BD:PROTAC complex [4] | ΔG, VCB into BRD9-BD:PROTAC complex [4] | ΔH, VCB into BRD9-BD:PROTAC complex [4] | –TΔS, VCB into BRD9-BD:PROTAC complex [4] | cooperativity α (ITC) ([4]; listed as VZ185) | N (stoichiometry), BRD9-BD into PROTAC [5] | ΔG, BRD9-BD into PROTAC [5] | ΔH, BRD9-BD into PROTAC [5] | increase in the maximum α intensity compared to VCB:5:BRD9-BD ([2]; AlphaLISA) | cooperativity α (ITC) [4] | –TΔS, BRD9-BD into PROTAC [5] | Compound
2.4 |  |  |  |  |  |  |  |  |  |  |  |  |  |  |  |  | COc1cc(-c2cn(C)c(=O)c3cnccc23)cc(OC)c1CN1CCN(CCCCCOc2cc(-c3scnc3C)ccc2CNC(=O)[C@@H]2C[C@H](O)CN2C(=O)[C@@H](NC(=O)C2(F)CC2)C(C)(C)C)CC1 [cisVZ185]
2.3 | 1.47 × 10^6 | 0.73 | –10.4 ± 0.2 kcal/mol | –7.04 ± 0.08 kcal/mol | –3.4 ± 0.1 kcal/mol | 0.73 | –10.33 ± 0.08 kcal/mol | –5.1 ± 0.1 kcal/mol | –5.3 ± 0.1 kcal/mol | 0.97 and 0.96 | 0.77 | –11.35 ± 0.05 kcal/mol | –12.8 ± 0.1 kcal/mol |  |  |  | COc1cc(-c2cn(C)c(=O)c3cnccc23)cc(OC)c1CN1CCN(CCCCCOc2cc(-c3scnc3C)ccc2CNC(=O)[C@@H]2C[C@@H](O)CN2C(=O)[C@@H](NC(=O)C2(F)CC2)C(C)(C)C)CC1 [Compound 51, (2S,4R)-N-(2-((5-(4-(2,6-Dimethoxy-4-(2-methyl-1-oxo-1,2-dihydro-2,7-naphthyridin-4-yl)benzyl)piperazin-1-yl)pentyl)oxy)-4-(4-methylthiazol-5-yl)benzyl)-1-((S)-2-(1-fluorocyclopropane-1-carboxamido)-3,3-dimethylbutanoyl)-4-hydroxypyrrolidine-2-carboxamide]
 | 1.0 × 10^6 | 0.60 ± 0.01 | –10.2 ± 0.1 kcal/mol | –15.2 ± 0.1 kcal/mol |  | 0.75 ± 0.05 | –9.7 ± 0.1 kcal/mol | –6.4 ± 0.1 kcal/mol | –3.3 ± 0.1 kcal/mol |  | 0.753 ± 0.004 | –10.7 ± 0.1 kcal/mol |  |  |  |  | COc1cc(-c2cn(C)c(=O)c3cnccc23)cc(OC)c1CN1CCN(CCOCCOCC(=O)N[C@H](C(=O)N2C[C@H](O)C[C@H]2C(=O)NCc2ccc(-c3scnc3C)cc2)C(C)(C)C)CC1 [Compound 5, (2S,4R)-1-((S)-2-(2-(2-(2-(4-(2,6-Dimethoxy-4-(2-methyl-1-oxo-1,2-dihydro-2,7-naphthyridin-4-yl)benzyl)piperazin-1-yl)ethoxy)ethoxy)acetamido)-3,3-dimethylbutanoyl)-4-hydroxy-N-(4-(4-methylthiazol-5-yl)benzyl)pyrrolidine-2-carboxamide]
2 | 1.56 × 10^6 | 0.99 | –9.64 ± 0.03 kcal/mol | –6.56 ± 0.09 kcal/mol | –3.1 ± 0.1 kcal/mol | 0.99 | –9.7 ± 0.2 kcal/mol | –6.4 ± 0.2 kcal/mol | –3.3 ± 0.2 kcal/mol |  | 1.00 | –11.0 ± 0.1 kcal/mol | –11.4 ± 0.1 kcal/mol | 50% | 1 and 1.05 | 0.44 ± 0.05 kcal/mol | COc1cc(-c2cn(C)c(=O)c3cnccc23)cc(OC)c1CN1CCN(CCOCCOCCOc2cc(-c3scnc3C)ccc2CNC(=O)[C@@H]2C[C@@H](O)CN2C(=O)[C@@H](NC(=O)C2(F)CC2)C(C)(C)C)CC1 [Compound 26, (2S,4R)-N-(2-(2-(2-(2-(4-(2,6-Dimethoxy-4-(2-methyl-1-oxo-1,2-dihydro-2,7-naphthyridin-4-yl)benzyl)piperazin-1-yl)ethoxy)ethoxy)ethoxy)-4-(4-methylthiazol-5-yl)benzyl)-1-((S)-2-(1-fluorocyclopropane-1-carboxamido)-3,3-dimethylbutanoyl)-4-hydroxypyrrolidine-2-carboxamide]
